Data reported in PMC11345829, “Discovery of Potent Isoquinolinequinone N-Oxides to Overcome Cancer Multidrug Resistance” (Journal of Medicinal Chemistry, 2024).
Read-outs that look alike come from different tables or passages of the source.

Assays:
[1] = tested on: NCI60 tumor cell line panel; experiment: NCI60 one-dose screen (10 μM), mean growth; type: cell-based, human; conditions: for activity at 10 µM: Homo sapiens; for activity at 10 µM / mean growth (%, 10 μM): 48 h, one dose 10 μM, mean cell growth of 60 tumor cell lines
Description: (§1) S2.1 NCI Screening Assay Experimental details
(§2) NCI Screening Assay Experimental: Cancer cell growth assays (NCI60 screening) 5,6 One-dose study: Tested compounds were initially solubilised in DMSO, diluted into RPMI 1640 and 5% fetal bovine serum/L-glutamine, and added to 96-well plates containing cell lines previously cultured for 24 h. After 48 h incubation, the media were removed, and the cells were fixed and stained with sulforhodamine B to determine overall percent growth/ total protein content. Unbound dye was removed with five washes of 1% acetic acid, and the plates were allowed to air dry. The dye was then resolubilised in Tris buffer, and the colorimetric absorbance was measured (515 nm). Growth inhibition was measured relative to the response generated from proliferating cells cultured under identical conditions for 48 h. […]

[2] = tested on: NCI60 tumor cell line panel; experiment: NCI60 five-dose screen, mean over panel; type: cell-based, human; conditions: five dose
Excerpt: (§3) The concentration−response curve generated enables the determination of three criteria, GI50 (drug concentration at which 50% of cell growth is inhibited), total growth inhibition (TGI) and LC50 (drug concentration at which 50% of tumor cells are killed) which can be used to compare effectiveness against any compound tested in the screen since its inception.
as §1
(§4) NCI Screening Assay Experimental: Cancer cell growth assays (NCI60 screening) 5,6 One-dose study: Tested compounds were initially solubilised in DMSO, diluted into RPMI 1640 and 5% fetal bovine serum/L-glutamine, and added to 96-well plates containing cell lines previously cultured for 24 h. After 48 h incubation, the media were removed, and the cells were fixed and stained with sulforhodamine B to determine overall percent growth/ total protein content. Unbound dye was removed with five washes of 1% acetic acid, and the plates were allowed to air dry. The dye was then resolubilised in Tris buffer, and the colorimetric absorbance was measured (515 nm). Growth inhibition was measured relative to the response generated from proliferating cells cultured under identical conditions for 48 h. Data from one-dose experiments pertains to the percentage growth at […]
(§5) Five-dose study: Serial 5 × 10-fold dilution from an initial DMSO stock solution was performed, prior to incubation at each individual concentration (10 nM, 100 nM, 1 μM, 10 μM and 100 μM). Using seven absorbance measurements (time zero (Tz), control growth (C), and test growth in the presence of drug at the five concentration levels (Ti)), the percentage growth was calculated at each of the drug concentrations levels. Percentage growth inhibition was calculated as: [(Ti − Tz)/(C − Tz)] × 100 for concentrations for which Ti ≥ Tz, [(Ti − Tz)/Tz] × 100 for concentrations for which Ti < Tz. Three dose response parameters were calculated for each experimental agent. […]
(§6) was calculated from [(Ti − Tz)/(C − Tz)] × 100 = 50, which is the drug concentration resulting in a 50% reduction in the net protein increase (as measured by sulforhodamine B staining) in control cells during the drug incubation. The drug concentration resulting in total growth inhibition (TGI) was calculated from Ti = Tz. The LC50 (concentration of drug resulting in a 50% reduction in the measured protein at the end of the drug treatment as compared to that at the beginning) indicating a net loss of cells following treatment was calculated from [(Ti − Tz)/Tz] × 100 = −50. Values were calculated for each of these three parameters if the level of activity was reached; however, if the effect was not reached or was exceeded, the value for that parameter was expressed as greater or less than the maximum or minimum concentration tested.

[3] = tested on: COLO-205; experiment: NCI60 five-dose GI50; type: cell-based; conditions: Homo sapiens, colon
Excerpt: as §3, §1, §4, §5, §6

[4] = tested on: K-562; experiment: NCI60 five-dose GI50; type: cell-based; conditions: Homo sapiens, K562, five dose
Excerpt: as §3, §1, §4, §5, §6

[5] = tested on: LOX-IMVI; experiment: NCI60 five-dose GI50; type: cell-based; conditions: Homo sapiens, melanoma
Excerpt: as §3, §1, §4, §5, §6

[6] = tested on: MCF-7; experiment: NCI60 five-dose GI50; type: cell-based; conditions: Homo sapiens, MCF7, breast
Excerpt: as §3, §1, §4, §5, §6

[7] = tested on: NCI-ADR/RES; experiment: NCI60 five-dose GI50; type: cell-based; conditions: Homo sapiens, MDR ovarian
Excerpt: as §3, §1, §4, §5, §6

[8] = tested on: OVCAR-3; experiment: NCI60 five-dose GI50; type: cell-based; conditions: Homo sapiens, ovarian
Excerpt: as §3, §1, §4, §5, §6

[9] = tested on: UACC-62; experiment: NCI60 five-dose GI50; type: cell-based; conditions: Homo sapiens, melanoma
Excerpt: as §3, §1, §4, §5, §6

[10] = tested on: OVCAR-8; experiment: NCI60 five-dose GI50; type: cell-based; conditions: Homo sapiens, ovarian
Excerpt: as §3, §1
as §2, with “nm).” for “nm). Growth inhibition was measured relative to the response generated from proliferating cells cultured under identical conditions for 48 h.”
as §5, §6

[11] = Homo sapiens, across 57-60 cell lines (number given per compound), read-out: Mean of GI50 as Log 10 Concentration (SD) (converted)
[12] = mean over 52 human tumor cell lines common to all analogues, read-out: mean GI50

| Compound | activity at 10 µM [1] [%] | GI50 [2, 11] [nM] | GI50 [2, 12] [nM] | GI50 [3] [nM] | GI50 ([4]; leukemia) [nM] | GI50 [5] [nM] | GI50 [6] [nM] | GI50 [7] [nM] | GI50 [8] [nM] | GI50 [9] [nM] | GI50 [10] [nM] | mean growth (%, 10 μM) [1] [%] | one-dose screen outcome ([1]; 10 μM) | GI50 [4] [nM] |
| --- | --- | --- | --- | --- | --- | --- | --- | --- | --- | --- | --- | --- | --- | --- |
| COC(=O)c1c2c(c(C)[n+]([O-])c1C)C(=O)C(NCc1ccc(OC)cc1)=CC2=O [Compound 6] | 19 | 2040 | 2120 | 839 | 2670 | 2410 | 1410 | 2420 | 315 | 1720 | 2780 | – | – | – |
| COC(=O)c1c2c(c(C)[n+]([O-])c1C)C(=O)C=C(NCc1ccc(OC)cc1)C2=O [Compound 7] | -34 | 1530 | 900 | 325 | 491 | 408 | 300 | 419 | 284 | 374 | 452 | -34 | – | – |
| COC(=O)c1c2c(c(C)[n+]([O-])c1C)C(=O)C(NCc1cccc(OC)c1)=CC2=O [Compound 8] | 23 | 2210 | 2290 | 1100 | 2980 | 2360 | 1650 | 2360 | 512 | 1700 | 2520 | – | – | – |
| COC(=O)c1c2c(c(C)[n+]([O-])c1C)C(=O)C=C(NCc1cccc(OC)c1)C2=O [Compound 9] | -52 | 607 | 740 | 252 | 416 | 302 | 286 | 441 | 259 | 306 | 339 | -52 | – | – |
| COC(=O)c1c2c(c(C)[n+]([O-])c1C)C(=O)C(NCc1ccc(Cl)cc1)=CC2=O [Compound 10] | 57 | – | – | – | – | – | – | – | – | – | – | – | did not achieve sufficient growth inhibition | – |
| COC(=O)c1c2c(c(C)[n+]([O-])c1C)C(=O)C=C(NCc1ccc(Cl)cc1)C2=O [Compound 11] | -32 | 412 | 550 | 238 | 58 | 39 | 267 | 267 | 208 | 55 | 292 | -32 | – | < 150 |
| COC(=O)c1c2c(c(C)[n+]([O-])c1C)C(=O)C(NCc1cccc(Cl)c1)=CC2=O [Compound 12] | 12 | 1340 | 1480 | 388 | 2170 | 1760 | 1100 | 1640 | 322 | 1240 | 1520 | – | – | – |
| COC(=O)c1c2c(c(C)[n+]([O-])c1C)C(=O)C=C(NCc1cccc(Cl)c1)C2=O [Compound 13] | -42 | 405 | 620 | 263 | 109 | 94 | 270 | 352 | 243 | 144 | 297 | -42 | – | < 150 |
| COC(=O)c1c2c(c(C)[n+]([O-])c1C)C(=O)C(NCc1ccc(Br)cc1)=CC2=O [Compound 14] | 18 | 1640 | 1800 | 659 | 2380 | 1670 | 1330 | 1970 | 301 | 1170 | 1830 | – | – | – |
| COC(=O)c1c2c(c(C)[n+]([O-])c1C)C(=O)C=C(NCc1ccc(Br)cc1)C2=O [Compound 15] | -50 | 515 | 780 | 313 | 47 | 84 | 289 | 439 | 273 | 46 | 465 | -50 | – | < 150 |
| COC(=O)c1c2c(c(C)[n+]([O-])c1C)C(=O)C(NCc1ccc(F)c(F)c1)=CC2=O [Compound 16] | 11 | 1780 | 1910 | 673 | 2230 | 1980 | 1480 | 2300 | 333 | 1530 | 1960 | – | – | – |
| COC(=O)c1c2c(c(C)[n+]([O-])c1C)C(=O)C=C(NCc1ccc(F)c(F)c1)C2=O [Compound 17] | -49 | 421 | 580 | 260 | 113 | 64 | 290 | 345 | 258 | 68 | 299 | -49 | – | < 150 |
| COC(=O)c1c2c(c(C)[n+]([O-])c1C)C(=O)C(NCc1ccc(F)c(Cl)c1)=CC2=O [Compound 18] | 4 | 1800 | 1510 | 588 | 2670 | 2340 | 1320 | 2080 | 306 | 1380 | 2380 | – | – | – |
| COC(=O)c1c2c(c(C)[n+]([O-])c1C)C(=O)C=C(NCc1ccc(F)c(Cl)c1)C2=O [Compound 19] | -47 | 290 | 560 | 211 | 51 | 31 | 229 | 321 | 199 | 41 | 249 | -47 | – | < 150 |
